Results as given in ChEMBL document CHEMBL3992534, “Design, Synthesis, and Biological Evaluation of Novel, Non-Brain-Penetrant, Hybrid Cannabinoid CB1R Inverse Agonist/Inducible Nitric Oxide Synthase (iNOS) Inhibitors for the Treatment of Liver Fibrosis” (J Med Chem, 2017).
The source made the active and inactive calls. The calls are words filed in the database; no cut-off is given here.

Experiments:
[1] = system: Liver; test: Drug uptake in C57Bl6/J mouse liver at 10 mg/kg, po administered via gavage measured after 1 hr by LC-MS/MS analysis; type: ADME, organism-based; details: in vivo
[2] = system: Mus musculus; test: Antifibrotic activity in CCl4-induced C57Bl6/J mouse liver fibrosis model assessed as reduction in iNOS level at 10 mg/kg administered via oral gavage for 4 weeks by immunostaining based method; type: functional, organism-based
[3] = Half life in mouse at 10 mg/kg, po; type: ADME, organism-based; details: in vivo
[4] = system: Mus musculus; test: Antifibrotic activity in BDL-induced wild-type C57Bl6/J mouse liver damage model assessed as reduction in liver fibrosis at 10 mg/kg administered once daily via oral gavage starting on day 6 post-BDL induction by picrosirius red staining based histological analysis; type: functional, organism-based
[5] = Oral bioavailability in Sprague-Dawley rat at 10 mg/kg; type: ADME, organism-based; details: in vivo
[6] = system: Brain; test: Drug level in C57Bl6/J mouse brain at 10 mg/kg, po administered via gavage measured after 1 hr by LC-MS/MS analysis; type: ADME, organism-based; details: in vivo
[7] = Half life in Sprague-Dawley rat at 10 mg/kg, po; type: ADME, organism-based; details: in vivo
[8] = Ratio of drug level in brain to plasma in C57Bl6/J mouse at 10 mg/kg, po administered via gavage measured after 28 days by LC-MS/MS analysis; type: ADME, organism-based; details: brain and plasma, read-out: BPR
[9] = system: Mus musculus; test: In vivo antagonist activity at CB1R in C57Bl6/J mouse assessed as induction of anxiogenic behavior at 10 mg/kg administered once daily via oral gavage for 28 days by elevated plus maze test; type: functional, organism-based
[10] = system: Mus musculus; test: In vivo antagonist activity at CB1R in C57Bl6/J mouse assessed as reversal of ACEA-induced reduction in upper gastrointestinal motility administered via oral gavage administered 30 mins prior to ACEA addition; type: functional, organism-based
[11] = system: Salmonella typhimurium; test: Mutagenicity in Salmonella typhimurium TA100 up to 125 ug/ml by Ames test; type: toxicity; details: salmonella enterica subsp. enterica serovar typhimurium
[12] = system: Salmonella typhimurium; test: Mutagenicity in Salmonella typhimurium TA98 up to 125 ug/ml by Ames test; type: toxicity; details: salmonella enterica subsp. enterica serovar typhimurium
[13] = system: Liver; test: Drug uptake in C57Bl6/J mouse liver at 10 mg/kg, po administered via gavage measured after 28 days by LC-MS/MS analysis; type: ADME, organism-based; details: in vivo, 672 h
[14] = system: Mus musculus; test: Antiobesity activity in diet-induced obesity C57Bl6/J mouse model assessed as improvement in glucose tolerance administered once daily via oral gavage for 2 weeks measured at post last dose by ipGTT; type: functional
[15] = Tmax in mouse at 10 mg/kg, po; type: ADME, organism-based; details: in vivo
[16] = system: Mus musculus; test: Antifibrotic activity in CCl4-induced C57Bl6/J mouse liver fibrosis model assessed as reduction in liver fibrosis at 10 mg/kg administered via oral gavage for 4 weeks by picrosirius red staining based histological analysis; type: functional, organism-based
[17] = Ratio of drug level in brain to plasma in C57Bl6/J mouse at 10 mg/kg, po administered via gavage measured after 1 hr by LC-MS/MS analysis; type: ADME, organism-based
[18] = Tmax in Sprague-Dawley rat at 10 mg/kg, po; type: ADME, organism-based; details: in vivo
[19] = system: Mus musculus; test: Antiobesity activity in diet-induced obesity C57Bl6/J mouse model assessed as reduction in food intake administered once daily via oral gavage for 2 weeks; type: functional
[20] = system: Brain; test: Drug level in C57Bl6/J mouse brain at 10 mg/kg, po administered via gavage measured after 28 days by LC-MS/MS analysis; type: ADME, organism-based; details: in vivo, 672 h
[21] = system: Mus musculus; test: Antifibrotic activity in BDL-induced wild-type C57Bl6/J mouse liver damage model assessed as reduction in collagen deposition in liver at 10 mg/kg administered once daily via oral gavage by picrosirius staining based histological analysis; type: functional, organism-based
[22] = system: Mus musculus; test: Antifibrotic activity in BDL-induced CB1R deficient C57Bl6/J mouse liver damage model assessed as reduction in collagen deposition in liver at 10 mg/kg administered once daily via oral gavage by picrosirius staining based histological analysis; type: functional, organism-based
[23] = system: Mus musculus; test: Antiobesity activity in diet-induced obesity C57Bl6/J mouse model assessed as reduction in body weight administered once daily via oral gavage for 2 weeks; type: functional
[24] = system: Mus musculus; test: Antiobesity activity in diet-induced obesity C57Bl6/J mouse model assessed as reduction in hepatic steatosis by measuring hepatic triglyceride level administered once daily via oral gavage for 2 weeks; type: functional

- Drug uptake [1]: Active
- half-life [3]: 2 h
- bioavailability [5]: 55%
- Drug uptake [6]: < 3%
- half-life [7]: 2 h
- Kp at 672 h [8]: 0.03
- Drug uptake [13]: Active
- Tmax [15]: 1 h
- BPR [17]: 2.7%
- Tmax [18]: 0.75 h
- Drug uptake [20]: < 3%
SMILES: C/C(N)=N\C(=N/S(=O)(=O)c1ccc(Cl)cc1)N1C[C@H](c2ccccc2)C(c2ccc(Cl)cc2)=N1
- Activity [2]: Active
- Activity [4]: Active
- Activity [9]: inactive
- Activity [10]: Dose-dependent effect
- Activity [11]: Non-Toxic
- Activity [12]: Non-Toxic
- Activity [14]: Dose-dependent effect
- Activity [16]: Active
- Activity [19]: Dose-dependent effect
- Activity [21]: Active
- Activity [22]: Active
- Activity [23]: Dose-dependent effect
- Activity [24]: Dose-dependent effect
